Data on one compound can be found in US8273768B2, “Iso CA-4 and analogues thereof as potent cytotoxic agents inhibiting tubuline polymerization” (Centre National de la Recherche Scientifique (CNRS), priority 2007, dated 2012).

The experiment relates to human endothelial cells (EAhy926). Briefly: Formation of vascular tubes on Matrigel. Type of experiment: cell-based. The settings on record: EAhy926, treatment of 3 hours, 10 nM. On the procedure:
In order to know whether the compound (I-1) perturbs the spatial organization of endothelial cells in structures similar to vascular capillaries, human endothelial cells (EAhy926) were treated immediately after cultivation on Matrigel® or after 24 hours of cultivation, in order to allow them to form vascular tubes.
In order to evaluate the antivascular activity of the compound (I-1), the EAhy926 cells were cultivated in 96-well culture plates covered beforehand with an extract of extracellular matrix (Matrigel™, BD Biosciences, Le Pont-de-Claix, France) in which they spontaneously form capillary tubes.
First of all, we measured the capacity of the compound (I-1) of inhibiting the formation of the capillary network. Matrigel™ is deposited in 96-well culture plates in an amount of 70 μL/well and left to incubate at 37° C. for 45 minutes in order to allow its polymerization. 15,000 cells suspended in 150 μL of culture medium are sown per well in each of the wells containing Matrigel™ in the absence or in the presence of different concentrations of the compound (I-1), with 3 wells per concentration. After 1 hour, 3 hours and 6 hours of incubation at 37° C., the cells are observed and photographed by means of an optical microscope of the TE2000 type (Nikon, France), equipped with a camera. […]

Turning to `C=C(c1ccc(OC)c(O)c1)c1cc(OC)c(OC)c(OC)c1` [(I-1)], the “Number of vascular tubes on Matrigel” value is listed as “very significant decrease in the number of vascular tubes”.
